Laboratory results as given in patent US5739114A, “Immunosuppressive cyclolignan derivatives” (Universidad de Salamanca, priority 1994, dated 1998).
In brackets after ≈: the same amount, converted by molar mass. Read-outs that look alike come from different tables or passages of the source.

What was measured:
[1] = Cytotoxicity for monkey kidney fibroblasts; assay type: cell-based
From the text: ^d IC50 (μg/ml) for monkey kidney fibroblasts.

[2] = test system: Graft-vs.-Host Reaction (spleen weight); assay: in vivo Graft-vs.-Host Reaction (GVHR) test
From the text: ^b % reduction of spleen weight with respect to non treated animals.

graft (implant duration) = assay: in vivo Suppression Graft (SG) test
From the text: ^c % of implant duration with respect to non treated animals.
^e 20% of the animals died in this experiment before the end of the
program (30 days of observation).

## COc1cc([C@@H]2c3cc(O)c(O)cc3C[C@H]3COC(=O)[C@H]32)cc(OC)c1OC [AP-37, 3,4-O-demethylenedeoxypicropodophyllin]
[1]; read-out: Cytotox. IC50
  CC50: > 20 µg/mL
[2]; dose 0.1 mg/kg/day (7 days)
  GVHR index: % reduction of spleen weight with respect to non treated animals: 58%

## COc1cc(C2c3cc4c(cc3C3=NOCC3C2C(=O)O)OCO4)cc(OC)c1OC (stereo not shown) [LL-11, isoxazopodophyllic acid]
[1]
  CC50: > 10 µg/mL
Graft (implant duration); dose 0.15 mg/kg/day (7 days)
  SG index: % of implant duration with respect to non treated animals: 204%

## COC(=O)C1Oc2cc3c(cc2O1)[C@@H](c1cc(OC)c(OC)c(OC)c1)[C@@H]1C(=O)OC[C@@H]1C3 (stereo partly shown) [AP-47, 10-methoxycarbonyldeoxypicropodophyllin]
[1]; read-out: Cytotox. IC50
  CC50: 2.5 µg/mL (≈ 5.48 µM)
[2]; dose 10 mg/kg/day (7 days)
  GVHR index: % reduction of spleen weight with respect to non treated animals: 56%

## COc1cc([C@@H]2c3cc(O)c(O)cc3[C@@H](O)[C@H]3COC(=O)[C@H]23)cc(OC)c1OC [AP-39, 3,4-O-demethyleneepipodophyllotoxin]
[1]; read-out: Cytotox. IC50
  CC50: > 10 µg/mL
Graft (implant duration); dose 1.5 mg/kg/day (7 days)
  SG index: % of implant duration with respect to non treated animals: 200%

## COC(=O)C1C2CN(c3ccccc3)N=C2c2cc3c(cc2C1c1cc(OC)c(OC)c(OC)c1)OCO3 (stereo not shown) [LL-4, methyl phenylpyrazopodophyllate]
[1]; read-out: Cytotox. IC50
  CC50: 1 µg/mL (≈ 1.94 µM)
[2]; dose 1 mg/kg/day (7 days)
  GVHR index: % reduction of spleen weight with respect to non treated animals: 53%

## COc1cc([C@@H]2c3cc(O)c(O)cc3[C@H](O)[C@H]3COC(=O)[C@H]23)cc(OC)c1OC [AP-40, 3,4-O-demethylenepodophyllotoxin]
[1]; read-out: Cytotox. IC50
  CC50: 0.5 µg/mL (≈ 1.24 µM)
Graft (implant duration); dose 1.5 mg/kg/day (7 days)
  SG index: % of implant duration with respect to non treated animals: 229%

## O=P1(N(CCCl)CCCl)NCCCO1 (stereo not shown) [Cyclophosphamide, reference compound]
[2]; dose 200 mg/kg/day (7 days)
  GVHR index: % reduction of spleen weight with respect to non treated animals: 79%
